# Source: patent US20100009936A1, “CHEMICAL COMPOUNDS” (PRAECIS PHARMACEUTICALS INCORPORATED, priority 2006, published 2010)
# Key:
# S1P-1 receptor [1] = target: T1, S1P-1 receptor (Homo sapiens, UniProt P21453); experiment: [33P]sphingosine 1-phosphate binding assay, S1P-1 receptor; design: expressed in transfected cells; host or cells: HEK 293 T cells (transient, FuGENE 6), crude membranes
# Procedure: In certain embodiments, the compounds of the invention selective for the S1P-1 receptor as compared to one or more of the other S1P receptors. For example, one set of compounds includes compounds which are selective for the S1P-1 receptor relative to the S1P-3 receptor. […] The EC50 of a compound is determined using the ^35S-GTPγS binding assay, as described in WO 03/061567, the entire contents of which are incorporated herein by reference. […] The IC50 of a compound is determined using the [^33P]sphingosine 1-phosphate binding assay, as described in Davis, M. D. et al., Sphingosine 1-Phosphate Analogs as Receptor Antagonists. J. Biol. Chem. (2005) 280:9833-9841, the entire contents of which are incorporated herein by this reference.
# The terms “agonist” or “S1P-1 receptor agonist” as used herein include the compounds described herein which bind to and/or agonize the S1P-1 receptor. […] The compounds' IC50 for the S1P-1 receptor can be measured using the binding assays described in Example 13 or those described in WO 03/061567.
# The ability of several of the compounds described herein to bind to the S1P-1 or S1P-3 receptor was also tested as follows.
# For the membrane preparation, plasmid DNA was transfected into HEK 293 T cells using the FuGENE 6 transfection protocol (publicly available from Roche). […] Protein concentration was determined spectroscopically by Bradford protein assay. […]
# human S1P3 receptor = target: T2, human S1P3 receptor (Homo sapiens, UniProt Q99500); experiment: GTPgS assay, S1P3; format: biochemical; conditions: [35S]-GTPgS, membranes of RBL cells expressing human S1P3; tested as trifluoracetic acid salt; read-out: pEC50 in the S1P3 assay (converted)
# T2 construct: expressed in transfected cells; membranes
# T2 sequence (Q99500 whole entry): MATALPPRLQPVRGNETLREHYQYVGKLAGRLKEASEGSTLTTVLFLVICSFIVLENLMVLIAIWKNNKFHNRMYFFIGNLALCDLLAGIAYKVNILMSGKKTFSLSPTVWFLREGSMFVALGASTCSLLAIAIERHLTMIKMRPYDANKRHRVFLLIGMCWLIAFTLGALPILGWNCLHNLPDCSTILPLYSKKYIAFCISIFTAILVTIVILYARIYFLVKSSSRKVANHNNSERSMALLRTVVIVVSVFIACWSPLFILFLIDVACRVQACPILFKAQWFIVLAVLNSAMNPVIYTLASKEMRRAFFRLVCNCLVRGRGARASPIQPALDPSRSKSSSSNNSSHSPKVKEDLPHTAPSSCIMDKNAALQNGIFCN
# Procedure: (§1) For membrane preparations all steps were performed at 4° C. Rat hepatoma cells stably expressing the human S1P1 receptor or Rat Basophilic Leukaemia cells (RBL) stably expressing human S1P3 receptor were grown to 80% confluency before being harvested into 10 ml Phospho-Buffered Saline (PBS) and centrifuged at 1200 rpm for 5 minutes. After removal of the supernatant, the pellet was re-suspended and cells were homogenised within a glass Waring blender for 2 bursts of 15 secs in 200 mls of buffer (50 mM HEPES, […], 25 ug/ml bacitracin, 1 mM EDTA, 1 mM PMSF, 2 uM pepstatin A). The blender was plunged into ice for 5 mins after the first burst and 10-40 mins after the final burst to allow foam to dissipate. The material was then spun at 500 g for 20 mins and the supernatant spun for 36 mins at 48,000 g. The pellet was resuspended in the same buffer as above but without PMSF and pepstatin A. The material was then forced through a 0.6 mm needle, made up to the required volume, (usually ×4 the volume of the original cell pellet), aliquoted and stored frozen at −80° C. […]
# (§2) After 30 minutes pre-coupling at 4° C. the bead and membrane suspension was dispensed into a white Greiner polypropylene LV384-well plate (5 ul/well), containing 0.1 ul of test compound or S1P. […] The final assay cocktail (10.1 ul) was centrifuged at 1000 rpm for 5 minutes then read immediately on a Viewlux. […]
# S1P-1 receptor [2] = target: T1, S1P-1 receptor; experiment: GTPgS assay, S1P1; format: biochemical; design: expressed in transfected cells; membranes; conditions: [35S]-GTPgS, membranes of rat hepatoma cells expressing human S1P1; tested as trifluoracetic acid salt; read-out: pEC50 in the S1P1 assay (converted)
# Procedure: as §1, §2
# C57Bl/6 mice = experiment: Lymphopenia assay in mice; format: in vivo; conditions: 10 mg/Kg oral dose, male C57Bl/6 mice, blood taken after 6 hours
# Procedure: Several of the compounds described herein were evaluated for the ability to induce lymphopenia in mice. Male C57Bl/6 mice were divided into groups of three. A control group received the 3% BSA vehicle only. The other groups received a single dose of either a specified dose of test compound in vehicle administered orally (PO) and intravenously (IV). After 6 hours, the mice were anesthetized with isoflurane and approximately 250 μL of blood was removed from the retroorbital sinus and collected in an EDTA microtainer, mixed with an anticoagulant and placed on a tilt table until complete blood count (CBC) analysis.
# T1 sequence (P21453 whole entry): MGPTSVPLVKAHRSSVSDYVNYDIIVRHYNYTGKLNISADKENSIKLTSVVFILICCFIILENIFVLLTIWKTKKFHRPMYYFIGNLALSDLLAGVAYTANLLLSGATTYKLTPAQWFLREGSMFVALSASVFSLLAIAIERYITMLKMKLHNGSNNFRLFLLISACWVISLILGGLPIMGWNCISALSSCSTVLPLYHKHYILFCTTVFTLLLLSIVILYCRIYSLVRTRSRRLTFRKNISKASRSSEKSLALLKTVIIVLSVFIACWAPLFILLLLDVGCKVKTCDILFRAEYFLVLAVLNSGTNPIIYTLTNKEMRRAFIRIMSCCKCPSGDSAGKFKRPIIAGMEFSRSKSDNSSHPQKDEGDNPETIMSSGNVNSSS
IC50 (S1P-1 receptor [1]) [nM],EC50 (human S1P3 receptor) [nM],EC50 (S1P-1 receptor [2]) [nM],Structure (SMILES),lymphopenia (C57Bl/6 mice) [%]
3.23,,,C[C@](N)(COP(=O)(O)O)c1nnc(-c2ccc(OCCCCc3ccccc3)c(C(F)(F)F)c2)s1,
,794,0.631,"CCCCCCCCOc1ccc(-c2nnc([C@@](C)(N)COP(=O)(O)O)s2)cc1C(F)(F)F [(S)-2-Amino-2-(5-(4-(octyloxy)-3-(trifluoromethyl)phenyl)-1,3,4-thiadiazol-2-yl)propyl dihydrogen phosphate]",
,,,"CCCCCCCCOc1ccc(-c2nnc([C@@](C)(N)CO)s2)cc1C(F)(F)F [(S)-2-amino-2-(5-(4-(octyloxy)-3-(trifluoromethyl)phenyl)-1,3,4-thiadiazol-2-yl)propan-1-ol]",77
,,,CCCCCCCCOc1ccc(-c2cnc([C@@](C)(N)CO)s2)cc1C(F)(F)F [(S)-2-amino-2-(5-(4-(octyloxy)-3-(trifluoromethyl)phenyl)thiazol-2-yl)propan-1-ol],75
,316,3.16,CCCCCCCCOc1ccc(-c2cnc([C@@](C)(N)COP(=O)(O)O)s2)cc1C(F)(F)F [(S)-2-amino-2-(5-(4-(octyloxy)-3-(trifluoromethyl)phenyl)thiazol-2-yl)propyl dihydrogen phosphate],
